According to US9029531B2 (Agios Pharmaceuticals, Inc., priority 2012, dated 2015):

Biological target: T1, glutaminase (GAC) (Homo sapiens, UniProt O94925)
T1 sequence (O94925 55-598 isoform O94925-3 limits assumed): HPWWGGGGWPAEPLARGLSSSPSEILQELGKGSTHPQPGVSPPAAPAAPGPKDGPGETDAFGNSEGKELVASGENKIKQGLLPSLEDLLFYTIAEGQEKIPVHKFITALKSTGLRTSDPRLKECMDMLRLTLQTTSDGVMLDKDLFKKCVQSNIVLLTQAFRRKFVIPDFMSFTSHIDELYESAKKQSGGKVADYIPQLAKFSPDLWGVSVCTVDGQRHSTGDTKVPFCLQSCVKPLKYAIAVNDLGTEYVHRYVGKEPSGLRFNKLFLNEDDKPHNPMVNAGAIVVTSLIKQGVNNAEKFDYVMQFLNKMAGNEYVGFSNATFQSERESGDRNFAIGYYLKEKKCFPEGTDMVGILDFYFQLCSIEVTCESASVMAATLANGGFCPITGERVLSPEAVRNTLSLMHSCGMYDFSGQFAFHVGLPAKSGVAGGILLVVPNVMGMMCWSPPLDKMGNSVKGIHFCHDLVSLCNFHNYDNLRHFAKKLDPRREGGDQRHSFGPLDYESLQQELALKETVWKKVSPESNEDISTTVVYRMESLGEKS
Assay: Glutaminase coupled endpoint enzymatic assay (Example A)
Assay type: biochemical
Settings: inhibition of glutaminase; assay of Example A or Example B
Outline: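 Endpoint coupled assay: glutamate formed by GAC drives GDH NADH production, recycled by diaphorase reducing resazurin to fluorescent resorufin (Ex544/Em590) after SDS stop. Buffer pH 8.5 with phosphate; glutamine at Km; enzyme preincubated with compound 60 min at room temperature.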

IC50 | Compound
< 100 nM | CC(=O)Nc1nnc([C@H]2CCC[C@H](c3nnc(NC(=O)Cc4cccc(N5CC(F)(F)C5)n4)s3)C2)s1 [Compound 281, N-(5-((1S,3S)-3-(5-acetamido-1,3,4-thiadiazol-2-yl)cyclohexyl)-1,3,4-thiadiazol-2-yl)-2-(6-(3,3-difluoroazetidin-1-yl)pyridin-2-yl)acetamide]
< 100 nM | O=C(Cc1ccc(C2CCNCC2)cc1)Nc1nnc([C@H]2CCC[C@H](c3nnc(NC(=O)Cc4ccc(C5CCNCC5)cc4)s3)C2)s1 [Compound 290]
1000 to 2000 nM | COc1ccccc1CC(=O)Nc1nnc(C2CCCCC(c3nnc(NC(=O)Cc4ccccc4OC)s3)C2)s1 (centres unmarked) [Compound 123]
500 to 1000 nM | Cn1cc(CC(=O)Nc2nnc([C@@H]3CCC[C@H](c4nnc(NC(=O)Cc5cn(C)c6ccccc56)s4)C3)s2)c2ccccc21 [Compound 15, N,N′-(5,5′-((1R,3S)-cyclohexane-1,3-diyl)bis(1,3,4-thiadiazole-5,2-diyl))bis(2-(1-methyl-1H-indol-3-yl)acetamide)]
1000 to 2000 nM | O=C(Cc1ccccn1)Nc1nnc(C2CCCCC(c3nnc(NC(=O)Cc4ccccn4)s3)C2)s1 (centres unmarked) [Compound 122]
100 to 500 nM | O=C(Cc1ccccc1)Nc1nnc([C@@H]2CC[C@@H](c3nnc(NC(=O)Cc4ccccc4)s3)C2)s1 [Compound 19, N,N′-(5,5′-((1R,3R)-cyclopentane-1,3-diyl)bis(1,3,4-thiadiazole-5,2-diyl))bis(2-phenylacetamide)]
< 100 nM | Nc1ccccc1CC(=O)Nc1nnc([C@H]2CCC[C@H](c3nnc(NC(=O)Cc4ccccc4N)s3)C2)s1 [Compound 56, N,N′-(5,5′-((1S,3S)-cyclohexane-1,3-diyl)bis(1,3,4-thiadiazole-5,2-diyl))bis(2-(2-aminophenyl)acetamide)]
< 100 nM | O=C(Cc1cccs1)Nc1nnc([C@H]2CCC[C@H](c3nnc(NC(=O)Cc4cccs4)s3)C2)s1 [Compound 59, N,N′-(5,5′-((1S,3S)-cyclohexane-1,3-diyl)bis(1,3,4-thiadiazole-5,2-diyl))bis(2-(thiophen-2-yl)acetamide)]
100 to 500 nM | O=C(Cc1c[nH]c2ccccc12)Nc1nnc([C@@H]2CCC[C@H](c3nnc(NC(=O)Cc4c[nH]c5ccccc45)s3)C2)s1 [Compound 23, N,N′-(5,5′-((1S,3R)-cyclohexane-1,3-diyl)bis(1,3,4-thiadiazole-5,2-diyl))bis(2-(1H-indol-3-yl)acetamide)]
< 100 nM | CCNc1cccc(CC(=O)Nc2nnc([C@H]3CCC[C@H](c4nnc(NC(=O)Cc5cccc(NCC)c5)s4)C3)s2)c1 [Compound 236, N,N′-(5,5′-((1S,3S)-cyclohexane-1,3-diyl)bis(1,3,4-thiadiazole-5,2-diyl))bis(2-(3-(ethylamino)phenyl)acetamide)]
500 to 1000 nM | N#Cc1ccccc1CC(=O)Nc1nnc(C2CCCCC(c3nnc(NC(=O)Cc4ccccc4C#N)s3)C2)s1 (centres unmarked) [Compound 127]
1000 to 2000 nM | Nc1nnc([C@@H]2CCC[C@@H](c3nnc(NC(=O)Cc4ccccn4)s3)C2)s1 [Compound 58]
100 to 500 nM | O=C(Cc1cccs1)Nc1nnc(C[C@H]2C[C@@H]2Cc2nnc(NC(=O)Cc3cccs3)s2)s1 (racemic) [Compound 6, N,N′-(5,5′-(trans-cyclopropane-1,2-diylbis(methylene))bis(1,3,4-thiadiazole-5,2-diyl))bis(2-(thiophen-2-yl)acetamide)]
100 to 500 nM | COc1ccccc1CC(=O)Nc1nnc(C2CCC(c3nnc(NC(=O)Cc4ccccc4OC)s3)C2)s1 (centres unmarked) [Compound 67]
< 100 nM | O=C(Cc1cccc(N2CC(F)(F)C2)n1)Nc1nnc([C@H]2CC[C@H](c3nnc(NC(=O)Cc4cccc(N5CC(F)(F)C5)n4)s3)C2)s1 [Compound 288, N,N′-(5,5′-((1S,3S)-cyclopentane-1,3-diyl)bis(1,3,4-thiadiazole-5,2-diyl))bis(2-(6-(3,3-difluoroazetidin-1-yl)pyridin-2-yl)acetamide)]
< 100 nM | CCC(=O)Nc1nnc([C@H]2CCC[C@H](c3nnc(NC(=O)Cc4cccc(N5CC(F)(F)C5)n4)s3)C2)s1 [Compound 282, N-(5-((1S,3S)-3-(5-(2-(6-(3,3-difluoroazetidin-1-yl)pyridin-2-yl)acetamido)-1,3,4-thiadiazol-2-yl)cyclohexyl)-1,3,4-thiadiazol-2-yl)propionamide]

IC50 | Compound
500 to 1000 nM | COc1cccc(CC(=O)Nc2nnc([C@@H]3CCCC[C@H](c4nnc(NC(=O)Cc5cccc(OC)c5)s4)C3)s2)c1 [Compound 128]
100 to 500 nM | CN(C)c1nc(CC(=O)Nc2nnc([C@H]3CCC[C@H](c4nnc(NC(=O)Cc5csc(N(C)C)n5)s4)C3)s2)cs1 [Compound 278, N,N′-(5,5′-((1S,3S)-cyclohexane-1,3-diyl)bis(1,3,4-thiadiazole-5,2-diyl))bis(2-(2-(dimethylamino)thiazol-4-yl)acetamide)]
100 to 500 nM | O=C(Cc1cccc(N2CCCC2)c1)Nc1nnc([C@H]2CCC[C@H](c3nnc(NC(=O)Cc4cccc(N5CCCC5)c4)s3)C2)s1 [Compound 260, N,N′-(5,5′-((1S,3S)-cyclohexane-1,3-diyl)bis(1,3,4-thiadiazole-5,2-diyl))bis(2-(3-(pyrrolidin-1-yl)phenyl)acetamide)]
100 to 500 nM | CN1CCN(c2cccc(CC(=O)Nc3nnc([C@H]4CCC[C@H](c5nnc(NC(=O)Cc6cccc(N7CCN(C)CC7)c6)s5)C4)s3)c2)CC1 [Compound 259]
< 100 nM | COc1ccnc(CC(=O)Nc2nnc([C@H]3CCC[C@H](c4nnc(NC(=O)Cc5cc(OC)ccn5)s4)C3)s2)c1 [Compound 223, N,N′-(5,5′-((1S,3S)-cyclohexane-1,3-diyl)bis(1,3,4-thiadiazole-5,2-diyl))bis(2-(4-methoxypyridin-2-yl)acetamide)]
100 to 500 nM | O=C(Cc1ccccc1)Nc1nnc(C[C@H]2C[C@@H]2Cc2nnc(NC(=O)Cc3ccccc3)s2)s1 (racemic) [Compound 1, N,N′-(5,5′-(trans-cyclopropane-1,2-diylbis(methylene))bis(1,3,4-thiadiazole-5,2-diyl))bis(2-phenylacetamide)]
100 to 500 nM | O=C(Cc1cccc(NC2CC(F)(F)C2)n1)Nc1nnc([C@H]2CCC[C@H](c3nnc(NC(=O)Cc4cccc(NC5CC(F)(F)C5)n4)s3)C2)s1 [Compound 250, N,N′-(5,5′-((1S,3S)-cyclohexane-1,3-diyl)bis(1,3,4-thiadiazole-5,2-diyl))bis(2-(6-(3,3-difluorocyclobutylamino)pyridin-2-yl)acetamide)]
< 100 nM | O=C(Cc1cccc(N2CC(F)C2)n1)Nc1nnc([C@H]2CCC[C@H](c3nnc(NC(=O)Cc4cccc(N5CC(F)C5)n4)s3)C2)s1 [Compound 251, N,N′-(5,5′-((1S,3S)-cyclohexane-1,3-diyl)bis(1,3,4-thiadiazole-5,2-diyl))bis(2-(6-(3-fluoroazetidin-1-yl)pyridin-2-yl)acetamide)]
100 to 500 nM | O=C(Cc1cccc(Br)c1)Nc1nnc([C@H]2CCC[C@H](c3nnc(NC(=O)Cc4cccc(Br)c4)s3)C2)s1 [Compound 220, N,N′-(5,5′-((1S,3S)-cyclohexane-1,3-diyl)bis(1,3,4-thiadiazole-5,2-diyl))bis(2-(3-bromophenyl)acetamide)]
500 to 1000 nM | O=C(Cc1cccc2[nH]ccc12)Nc1nnc([C@@H]2CCC[C@H](c3nnc(NC(=O)Cc4cccc5[nH]ccc45)s3)C2)s1 [Compound 25, N,N′-(5,5′-((1S,3R)-cyclohexane-1,3-diyl)bis(1,3,4-thiadiazole-5,2-diyl))bis(2-(1H-indol-4-yl)acetamide)]
< 100 nM | O=C(Cc1cccc(N2CC(O)C2)n1)Nc1nnc([C@H]2CCC[C@H](c3nnc(NC(=O)Cc4cccc(N5CC(O)C5)n4)s3)C2)s1 [Compound 249, N,N′-(5,5′-((1S,3S)-cyclohexane-1,3-diyl)bis(1,3,4-thiadiazole-5,2-diyl))bis(2-(6-(3-hydroxyazetidin-1-yl)pyridin-2-yl)acetamide)]
< 100 nM | O=C(Cc1c[nH]c2ccccc12)Nc1nnc([C@H]2CCC[C@H](c3nnc(NC(=O)Cc4c[nH]c5ccccc45)s3)C2)s1 [Compound 22]
< 100 nM | O=C(Cc1cccc2[nH]ccc12)Nc1nnc([C@H]2CCC[C@H](c3nnc(NC(=O)Cc4cccc5[nH]ccc45)s3)C2)s1 [Compound 24, N,N′-(5,5′-((1S,3S)-cyclohexane-1,3-diyl)Obis(1,3,4-thiadiazole-5,2-diyl))bis(2-(1H-indol-4-yl)acetamide)]
< 100 nM | CN(C)c1cccc(CC(=O)Nc2nnc([C@H]3CC[C@H](c4nnc(NC(=O)Cc5cccc(N(C)C)c5)s4)C3)s2)c1 [Compound 285, N,N′-(5,5′-((1S,3S)-cyclopentane-1,3-diyl)bis(1,3,4-thiadiazole-5,2-diyl))bis(2-(3-(dimethylamino)phenyl)acetamide)]
100 to 500 nM | COc1cccc(CC(=O)Nc2nnc(C3CCC(c4nnc(NC(=O)Cc5cccc(OC)c5)s4)C3)s2)c1 (centres unmarked) [Compound 68]
< 100 nM | COc1ccc(CC(=O)Nc2nnc([C@H]3CCC[C@H](c4nnc(NC(=O)Cc5ccc(OC)cn5)s4)C3)s2)nc1 [Compound 225, N,N′-(5,5′-((1S,3S)-cyclohexane-1,3-diyl)bis(1,3,4-thiadiazole-5,2-diyl))bis(2-(5-methoxypyridin-2-yl)acetamide)]
